Results on eight compounds are retold here after PubChem BioAssay (NCI).

Structures are written as SMILES.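 Values below derive from 48-hour exposures of cells grown in 96-well plates, with endpoints linearly interpolated between the two concentrations bracketing the appropriate inhibition level. Abbreviation: GI50, concentration required for 50% inhibition of growth. Definition used: TGI = concentration required for complete inhibition of growth.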

Test systems include NCI-H522 lung; SNB-19 CNS; HOP-92 NSCLC; BT-549 breast; HCT-15 colon; SK-MEL-28 melanoma; 786-0 renal; HT29 colon; UACC-257 melanoma; MDA-MB-231 breast.
Test in all cases: NCI anticancer screen, dose series, 48 h

As for `CC(C)(C)OC(=O)N1CCN(CCn2cc(C(F)(F)F)c3c(Cl)ncnc32)CC1`, the GI50 in the assay with NCI-H522 lung is 15.1 µM; in the assay with SNB-19 CNS, 2 µM; in the assay with HOP-92 NSCLC, 3.12 µM; in the assay with BT-549 breast, 1.55 µM; in the assay with HCT-15 colon, 1.94 µM; in the assay with SK-MEL-28 melanoma, 1.74 µM. Further, the GI50 with 786-0 renal is 14 µM; with HT29 colon, 3.27 µM; with UACC-257 melanoma, 3.31 µM; in the assay with MDA-MB-231 breast, 11.1 µM. Moreover, the TGI was 29.9 µM in the assay on NCI-H522 lung; 3.72 µM in the assay on SNB-19 CNS; 10.9 µM with HOP-92 NSCLC; 2.92 µM with BT-549 breast; 3.94 µM in the assay with HCT-15 colon; 3.25 µM in the assay with SK-MEL-28 melanoma. For the same compound, the TGI is 27.2 µM with 786-0 renal, 11.1 µM in the assay on HT29 colon, 10.4 µM in the assay with UACC-257 melanoma and 27.5 µM with MDA-MB-231 breast.
For the compound `COc1ccc(C(=O)OC2C(OC3C(O)COC(O[C@H]4C[C@H]5[C@@H]6CC=C7C[C@@H](O)CC[C@]7(C)[C@H]6CC[C@]5(C)[C@H]4[C@H](C)C(=O)CCC(C)C)C3OC(N)=O)OCC(O)C2O)cc1` (stereo partly drawn), the GI50 in the assay on NCI-H522 lung is 0.0658 µM; with SNB-19 CNS it was 0.381 µM; in the assay with HOP-92 NSCLC, 0.0686 µM; in the assay with BT-549 breast, under 0.003 µM; with HCT-15 colon, 1.04 µM; with SK-MEL-28 melanoma it was 0.033 µM. Further, the GI50 with 786-0 renal was 0.00486 µM; with HT29 colon, 0.0737 µM; with UACC-257 melanoma, 0.03 µM; in the assay with MDA-MB-231 breast, 0.355 µM. Also, the TGI with NCI-H522 lung was determined as 0.485 µM; in the assay on SNB-19 CNS, 3.2 µM; in the assay with HOP-92 NSCLC, 1.2 µM; with BT-549 breast, 3.71 µM; with HCT-15 colon, 5.44 µM; with SK-MEL-28 melanoma, 0.137 µM. Further, the TGI in the assay on 786-0 renal is 3.13 µM; in the assay with HT29 colon it was 4.27 µM; with UACC-257 melanoma, 0.472 µM; in the assay on MDA-MB-231 breast it was 4.58 µM.
As to `COc1c(C)c2c(c(O)c1C/C=C(\C)CCC(=O)O)C(=O)OC2`, the GI50 was 0.262 µM in the assay on NCI-H522 lung; 0.286 µM in the assay with SNB-19 CNS; 0.959 µM with HOP-92 NSCLC; 0.818 µM in the assay with BT-549 breast; 0.15 µM in the assay on HCT-15 colon; 0.38 µM in the assay on SK-MEL-28 melanoma. In addition, the GI50 is 0.326 µM in the assay with 786-0 renal, 0.248 µM in the assay on HT29 colon, 0.434 µM in the assay with UACC-257 melanoma and 0.956 µM in the assay with MDA-MB-231 breast. In addition, the TGI in the assay with NCI-H522 lung, in the assay on SNB-19 CNS, with HOP-92 NSCLC, with BT-549 breast, in the assay with HCT-15 colon and in the assay with SK-MEL-28 melanoma was over 100 µM throughout. Moreover, the TGI with 786-0 renal, in the assay with HT29 colon, in the assay with UACC-257 melanoma and with MDA-MB-231 breast was over 100 µM each time.
As to `CN[C@@H](C)C(=O)N[C@H](C(=O)N1CCC[C@H]1C(=O)Nc1snnc1-c1ccccc1)C1CCCCC1`, the GI50 is 18.3 µM in the assay on NCI-H522 lung; over 100 µM in the assay with SNB-19 CNS; 3.06 µM with HOP-92 NSCLC; 58.3 µM in the assay on HCT-15 colon; 23 µM in the assay with SK-MEL-28 melanoma; 62.8 µM in the assay with 786-0 renal. In addition, the GI50 was 31.7 µM in the assay on HT29 colon, 0.405 µM in the assay with UACC-257 melanoma and 0.778 µM with MDA-MB-231 breast. In addition, the TGI was 53.4 µM with NCI-H522 lung; over 100 µM in the assay with SNB-19 CNS; 27.7 µM in the assay with HOP-92 NSCLC; over 81.5 µM in the assay on BT-549 breast; over 100 µM in the assay with HCT-15 colon; 61.6 µM with SK-MEL-28 melanoma. Moreover, the TGI with 786-0 renal was over 100 µM; with HT29 colon, over 67.3 µM; in the assay on UACC-257 melanoma, 25.5 µM; in the assay on MDA-MB-231 breast it was 21.4 µM.
For the compound `c1ccc2[nH]c(-c3ccc(-c4nccc5c4[nH]c4ccccc45)cc3)nc2c1`, the GI50 in the assay on NCI-H522 lung is 2.06 µM; in the assay with SNB-19 CNS it was 4.21 µM; in the assay on HOP-92 NSCLC it was 2.06 µM; in the assay with BT-549 breast, 2.12 µM; in the assay with HCT-15 colon, 2.22 µM; with SK-MEL-28 melanoma it was 1.96 µM. Also, the GI50 in the assay on 786-0 renal is 2.24 µM; in the assay with HT29 colon it was 2.19 µM; in the assay on UACC-257 melanoma, 1.83 µM; in the assay with MDA-MB-231 breast, 2.39 µM. Besides, the TGI with NCI-H522 lung is 5.04 µM; in the assay on SNB-19 CNS, 30.4 µM; in the assay on HOP-92 NSCLC, 5.79 µM; with BT-549 breast, 5.42 µM; in the assay with HCT-15 colon, 5.61 µM; in the assay with SK-MEL-28 melanoma, 3.75 µM. Also, the TGI in the assay on 786-0 renal amounted to 6.3 µM; in the assay on HT29 colon it was 4.43 µM; in the assay with UACC-257 melanoma it was 3.5 µM; in the assay on MDA-MB-231 breast, 5.83 µM.
As to `N#CC(NC12CC3CC(CC(C3)C1)C2)c1ccc2c(c1)OCO2` (stereo not drawn), the TGI with NCI-H522 lung, in the assay on SNB-19 CNS, with HOP-92 NSCLC, in the assay with BT-549 breast, in the assay on HCT-15 colon and in the assay with SK-MEL-28 melanoma was over 100 µM throughout. Besides, the TGI in the assay on 786-0 renal, in the assay with HT29 colon, in the assay on UACC-257 melanoma and in the assay with MDA-MB-231 breast was over 100 µM in each case.
Turning to `COc1cc(OC(=O)c2ccccc2)cc2c1C(=O)C=CC2=O`, the TGI with NCI-H522 lung was 12.4 µM; in the assay with SNB-19 CNS, 56.4 µM; in the assay on HOP-92 NSCLC, 5.05 µM; in the assay on BT-549 breast, 29.8 µM; in the assay on HCT-15 colon, 31.4 µM; in the assay with SK-MEL-28 melanoma it was 34.5 µM. The TGI with 786-0 renal came out at 18.9 µM; in the assay with HT29 colon, 39.8 µM; with UACC-257 melanoma, 31.6 µM; in the assay with MDA-MB-231 breast, 5.48 µM.
Take `COc1ccc2nc3cccc([N+](=O)[O-])c3c(NCCCCCC(=O)O)c2c1`: the GI50 is 0.0363 µM in the assay with NCI-H522 lung; 0.178 µM in the assay with SNB-19 CNS; 0.0878 µM in the assay with HOP-92 NSCLC; 0.131 µM in the assay on BT-549 breast; 0.0251 µM in the assay on HCT-15 colon; 0.159 µM in the assay on SK-MEL-28 melanoma. In addition, the GI50 was 0.0799 µM in the assay with 786-0 renal, 0.014 µM with HT29 colon, 0.257 µM in the assay with UACC-257 melanoma and 0.838 µM in the assay with MDA-MB-231 breast. Also, the TGI in the assay with NCI-H522 lung came out at 0.101 µM; in the assay on SNB-19 CNS it was 2.84 µM; in the assay on HOP-92 NSCLC, 0.456 µM; in the assay on BT-549 breast, 0.422 µM; in the assay on SK-MEL-28 melanoma it was 0.548 µM; with 786-0 renal, 0.548 µM. Moreover, the TGI with HT29 colon was 0.392 µM; with UACC-257 melanoma, 0.926 µM; in the assay with MDA-MB-231 breast it was 74 µM.
